# Test results from patent publication US4618692A, “4-carbamoyloxy-oxazaphosphorins” (Asta-Werke Aktiengesellschaft, priority 1984, dated 1986).
# Experiment: cytotoxicity in vitro (general statement)
# Format: cell-based
smiles,measurement,value
"O=P1(N(CCCl)CCCl)NCCCO1 (stereo not shown) [cyclophosphamide, 2-[bis-(2-chloroethyl)-amino]-2-oxo-tetrahydro-2H-1,3,2-oxazaphosphorin]",cytotoxicity in vitro,practically no cytotoxic effect in vitro
